Test [1] is described as follows: Stress-induced erosion test of Senay and Levine (anti-ulcer activity). The class given is in vivo. Particulars: Dose 100 mg/kg. As for the experimental part: Anti-ulcer activity was determined by the stressinduced erosion test of Senay and Levine, Proc. Soc. Exp. Biol. Med., 124, 1221-3 (1967).
Test [2] has as its target T1, H^+ /K^+ ATPase (Oryctolagus cuniculus, UniProt P27112).
T1 construct: Rabbit gastric glands are isolated from gastric mucosa; from tissue; host or cells: isolated gastric glands from gastric mucosa of the corpus region of rabbit stomach
In words: Inhibition of 14C-aminopyrine uptake in rabbit isolated gastric glands stimulated by DBcAMP or high K+ (H+/K+ ATPase inhibition). The class given is cell-based. Particulars: compound at 10^-4 M, % inhibition of maximum response. The method, then: Compounds of formula I were also tested for anti-secretory activity by their ability to inhibit the highly specific proton transporting enzyme H^+ /K^+ ATPase.
Potential H+/K^+ ATPase inhibitors are evaluated by a technique involving the measurement of aminopyrine accumulation in rabbit isolated gastric glands. Amino-pyrine, which is a weak base, accumulates in acid-secreting cells; therefore, uptake of aminopyrine is increased by secretagogues and an inhibitor of acid secretion will reduce the response to one or more secretagogues depending upon its site of action. Compounds which reduce the response to dibutyryl cyclic adenosine monophosphate (DBcAMP) stimulation are assumed to have an intracellular site of action, and those which reduce the response to both DBcAMP and high potassium ion concentration (K^+) are thought to have an intracellular site of action at the secretory surface of the parietal cell, involving the highly specific proton--transporting enzyme, H^+ /K^+ ATPase. The following test procedure is used:
Rabbit gastric glands are isolated from gastric mucosa from the corpus region of the stomach by a method based on one described by Berglindh T., Obrink K. J., Acta Physiol. Scand. 96, 150-159 (1976). Measurement of aminopyrine uptake is carried out using a modification of the method described by Berglindh T., Hellander H. F., Obrink K. J. (ibid, 97, 401-414, 1976).
Compounds are tested at a concentration of 10^-4 M, initially, and in some cases at lower concentrations, for their ability to inhibit ^14 C-aminopyrine uptake in gastric glands, stimulated by DBcAMP and high K^+ respectively. Results are expressed as the % inhibition of the maximum response to the secretagogue induced by the test compound. An inhibitor of H^+ /K^+ ATPase would be expected to reduce the response to both secretagogues.

Setting [3] is: DBcAMP stimulation, read-out: % Inhibition to Stimulation by DBcAMP at 10^-4.
The mark [4] stands for this setting: high K+ stimulation, read-out: % Inhibition to Stimulation by K^+ at 10^-4.

Structures are written as SMILES. Where two headings read alike, the source gives them in different places.

By inhibition is commonly meant the change of the read-out against control, counted positive when it falls.

T1 sequence (P27112 whole entry): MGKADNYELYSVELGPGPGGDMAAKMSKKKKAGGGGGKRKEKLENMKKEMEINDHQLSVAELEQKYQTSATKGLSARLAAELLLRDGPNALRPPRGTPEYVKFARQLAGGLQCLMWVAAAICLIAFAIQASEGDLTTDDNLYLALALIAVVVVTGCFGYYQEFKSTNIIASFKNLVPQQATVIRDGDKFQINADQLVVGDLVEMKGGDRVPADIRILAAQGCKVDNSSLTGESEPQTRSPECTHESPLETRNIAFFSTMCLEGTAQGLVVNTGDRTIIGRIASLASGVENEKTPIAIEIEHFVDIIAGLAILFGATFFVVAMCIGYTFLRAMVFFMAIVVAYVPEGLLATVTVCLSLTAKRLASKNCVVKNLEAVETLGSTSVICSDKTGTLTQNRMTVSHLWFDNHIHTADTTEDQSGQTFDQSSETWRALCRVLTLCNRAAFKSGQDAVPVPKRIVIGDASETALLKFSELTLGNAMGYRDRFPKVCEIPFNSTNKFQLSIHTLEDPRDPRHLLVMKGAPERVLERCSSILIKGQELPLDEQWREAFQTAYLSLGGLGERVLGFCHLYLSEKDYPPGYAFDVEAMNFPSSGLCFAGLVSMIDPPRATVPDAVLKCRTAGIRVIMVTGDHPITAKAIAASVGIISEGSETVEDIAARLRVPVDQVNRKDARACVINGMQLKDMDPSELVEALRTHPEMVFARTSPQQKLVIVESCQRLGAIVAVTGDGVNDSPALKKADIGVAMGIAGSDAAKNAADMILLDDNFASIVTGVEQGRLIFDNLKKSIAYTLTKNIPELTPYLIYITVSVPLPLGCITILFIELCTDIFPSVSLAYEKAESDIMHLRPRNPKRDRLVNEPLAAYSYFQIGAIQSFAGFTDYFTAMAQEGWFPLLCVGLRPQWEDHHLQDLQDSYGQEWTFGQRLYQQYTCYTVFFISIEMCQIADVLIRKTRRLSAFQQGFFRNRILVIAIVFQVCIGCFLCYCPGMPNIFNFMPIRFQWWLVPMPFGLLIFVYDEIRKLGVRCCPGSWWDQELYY
T1 sequence (P18597 whole entry partner): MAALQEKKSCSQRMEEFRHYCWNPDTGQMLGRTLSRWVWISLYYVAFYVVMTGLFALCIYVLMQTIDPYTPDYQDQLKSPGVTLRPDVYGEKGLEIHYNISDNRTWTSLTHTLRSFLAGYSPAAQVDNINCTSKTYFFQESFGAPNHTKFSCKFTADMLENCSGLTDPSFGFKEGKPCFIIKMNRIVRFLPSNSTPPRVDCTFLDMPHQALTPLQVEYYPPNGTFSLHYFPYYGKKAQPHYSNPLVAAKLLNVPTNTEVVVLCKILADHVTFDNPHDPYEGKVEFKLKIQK

Consider `c1ccc(CSc2nc3cccc4c3n2CCC4)cc1` [Example 1, 2-Benzylthio-5,6,-dihydro-[4H]-imidazo [4,5,1-ij]-quinoline], for which, in test [1], the “Stress Induced Erosion (Senay & Levine) % Inhibition” value is on record as 83%. Further, the results for the inhibition at 100 µM in test [2] (setting [3]) and in test [2] (setting [4]) were 70% and 111%, respectively.
With `Clc1cccc(CSc2nc3cccc4c3n2CCC4)c1` [Example 2, 2-(3-Chlorobenzylthio)-5,6,-dihydro-[4H]-imidazo[4,5,1,-ij]quinoline], the figures for the inhibition at 100 µM in test [2] (setting [3]) and in test [2] (setting [4]) were 69% and 54%, respectively.
For `Fc1ccc(CSc2nc3cccc4c3n2CCC4)cc1` [Example 3, 5,6-Dihydro-2-(4-fluorophenylmethylthio)-[4H]-imidazo-[4,5,1,-ij]quinoline], the “Stress Induced Erosion (Senay & Levine) % Inhibition” value in test [1] stood at 62%. For the same molecule, the figures for the inhibition at 100 µM in test [2] (setting [3]) and in test [2] (setting [4]) were 6.7% and 76%, respectively.
On to `Clc1ccccc1CSc1nc2cccc3c2n1CCC3` [Example 4, 2-(2-Chlorophenylmethylthio)-5,6-dihydro-[4H]-imidazo-[4,5,1-ij]quinoline], for which the “Stress Induced Erosion (Senay & Levine) % Inhibition” value in test [1] is on record as 55%. In addition, the figures for the inhibition at 100 µM in test [2] (setting [3]) and in test [2] (setting [4]) were 32.9% and 83.5%, respectively.
Consider `Clc1ccc(CSc2nc3cccc4c3n2CCC4)cc1` [Example 5, 2-(4-Chlorophenylmethylthio)-5,6-dihydro-[4H]-imidazo-[4,5,1-ij]quinoline], for which the inhibition at 100 µM in test [2] (setting [3]) was found to be 53%; in test [2] (setting [4]) it was 109%.
Taken in the same sequence, the figures for `Fc1ccccc1CSc1nc2cccc3c2n1CCC3` [Example 6, 5,6-Dihydro-2-(2-fluorophenylmethylthio)-[4H]-imidazo-[4,5,1-ij]quinoline] were 40.6% and 93%.
Consider `C1=Cc2cccc3nc(SCc4ccccc4)n(c23)C1` [Example 7, 2-Benzylthio-[4H]-imidazo[4,5,1-ij]quinoline], for which, in test [1], the “Stress Induced Erosion (Senay & Levine) % Inhibition” value is given as 54%. For the same molecule, the inhibition at 100 µM amounted to 40% in test [2] (setting [3]) and 63% in test [2] (setting [4]).

For the origin of these results see patent US4609655A, “Anti-ulcer imidazo-quinoline, indole and benzazepine derivatives” (John Wyeth & Brother, Ltd., priority 1983, dated 1986).
